{"source": "ChEMBL document CHEMBL4804286", "about": "“3-amino-4-(4-(4 (dimethylcarbamoyl) phenyl)-1,4-diazepan-1-yl) thieno [2,3-b] pyridine-2-carboxamide for use in cancer therapy and formulations comprising the same” (2020)", "design_in_all_cases": "scale not given: the % may be the effect or the level left", "key": {"[1]": {"test_system": "Tyrosine-protein kinase ABL1 (Homo sapiens), P00519 [F317I]", "assay": "Inhibition of phosphorylated human ABL1 F317I mutant assessed as percent of control at 2000 nM by KINOMEscan assay relative to control"}, "[2]": {"test_system": "ALK tyrosine kinase receptor (Homo sapiens), Q9UM73 [C1156Y]", "sequence (Q9UM73 whole entry C1156Y, looked up)": "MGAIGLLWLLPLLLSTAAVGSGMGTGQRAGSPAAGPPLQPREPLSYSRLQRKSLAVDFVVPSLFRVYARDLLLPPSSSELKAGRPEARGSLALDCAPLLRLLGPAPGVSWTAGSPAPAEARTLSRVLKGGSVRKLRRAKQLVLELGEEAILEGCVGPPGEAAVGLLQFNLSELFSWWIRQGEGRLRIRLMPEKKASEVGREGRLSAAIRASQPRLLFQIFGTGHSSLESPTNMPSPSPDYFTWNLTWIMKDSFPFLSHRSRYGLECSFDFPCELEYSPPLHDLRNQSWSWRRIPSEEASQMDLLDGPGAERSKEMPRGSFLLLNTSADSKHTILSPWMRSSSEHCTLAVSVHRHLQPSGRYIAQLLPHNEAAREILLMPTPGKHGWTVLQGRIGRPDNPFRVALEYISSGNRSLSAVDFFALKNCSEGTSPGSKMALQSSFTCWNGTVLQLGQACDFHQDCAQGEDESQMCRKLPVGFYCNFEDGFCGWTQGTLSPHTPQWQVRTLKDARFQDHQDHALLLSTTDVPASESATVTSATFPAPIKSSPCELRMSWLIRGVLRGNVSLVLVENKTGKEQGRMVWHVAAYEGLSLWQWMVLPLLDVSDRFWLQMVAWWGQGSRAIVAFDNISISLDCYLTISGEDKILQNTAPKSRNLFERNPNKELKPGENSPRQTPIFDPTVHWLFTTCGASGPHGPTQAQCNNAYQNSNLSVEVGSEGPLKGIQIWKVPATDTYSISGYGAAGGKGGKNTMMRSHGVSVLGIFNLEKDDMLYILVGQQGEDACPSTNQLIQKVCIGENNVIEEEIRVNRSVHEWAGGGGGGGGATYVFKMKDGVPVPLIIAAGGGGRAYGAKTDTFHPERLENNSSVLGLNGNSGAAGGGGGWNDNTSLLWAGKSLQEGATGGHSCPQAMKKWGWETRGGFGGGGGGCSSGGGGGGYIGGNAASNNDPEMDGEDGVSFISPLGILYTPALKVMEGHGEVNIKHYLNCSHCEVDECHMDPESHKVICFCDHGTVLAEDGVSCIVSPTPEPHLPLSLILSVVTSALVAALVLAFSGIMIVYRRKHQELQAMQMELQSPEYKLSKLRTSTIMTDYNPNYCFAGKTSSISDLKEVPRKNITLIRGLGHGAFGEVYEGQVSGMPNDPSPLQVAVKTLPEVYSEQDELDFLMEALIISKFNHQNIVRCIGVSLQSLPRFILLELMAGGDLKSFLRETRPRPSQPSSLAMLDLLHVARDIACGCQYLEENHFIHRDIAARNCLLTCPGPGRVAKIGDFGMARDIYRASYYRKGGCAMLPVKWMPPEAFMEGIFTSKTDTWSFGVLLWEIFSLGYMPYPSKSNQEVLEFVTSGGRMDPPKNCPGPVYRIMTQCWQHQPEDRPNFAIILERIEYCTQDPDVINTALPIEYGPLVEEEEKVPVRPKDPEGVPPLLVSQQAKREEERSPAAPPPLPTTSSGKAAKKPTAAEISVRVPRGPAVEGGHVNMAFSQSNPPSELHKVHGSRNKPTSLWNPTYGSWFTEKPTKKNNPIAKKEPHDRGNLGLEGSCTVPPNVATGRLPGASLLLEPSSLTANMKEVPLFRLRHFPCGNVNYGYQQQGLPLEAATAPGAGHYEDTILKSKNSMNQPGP", "assay": "Inhibition of human ALK C1156Y mutant assessed as percent of control at 2000 nM by KINOMEscan assay relative to control"}, "[3]": {"test_system": "ALK tyrosine kinase receptor (Homo sapiens), Q9UM73 [L1196M]", "sequence (Q9UM73 whole entry L1196M, looked up)": "as the sequence (Q9UM73 whole entry C1156Y, looked up) above, with Y1156C, L1196M counted along it", "assay": "Inhibition of human ALK L1196M mutant assessed as percent of control at 2000 nM by KINOMEscan assay relative to control"}, "[4]": {"target": "Serine/threonine-protein kinase Chk1 (Homo sapiens) (UniProt O14757)", "sequence (O14757 whole entry)": "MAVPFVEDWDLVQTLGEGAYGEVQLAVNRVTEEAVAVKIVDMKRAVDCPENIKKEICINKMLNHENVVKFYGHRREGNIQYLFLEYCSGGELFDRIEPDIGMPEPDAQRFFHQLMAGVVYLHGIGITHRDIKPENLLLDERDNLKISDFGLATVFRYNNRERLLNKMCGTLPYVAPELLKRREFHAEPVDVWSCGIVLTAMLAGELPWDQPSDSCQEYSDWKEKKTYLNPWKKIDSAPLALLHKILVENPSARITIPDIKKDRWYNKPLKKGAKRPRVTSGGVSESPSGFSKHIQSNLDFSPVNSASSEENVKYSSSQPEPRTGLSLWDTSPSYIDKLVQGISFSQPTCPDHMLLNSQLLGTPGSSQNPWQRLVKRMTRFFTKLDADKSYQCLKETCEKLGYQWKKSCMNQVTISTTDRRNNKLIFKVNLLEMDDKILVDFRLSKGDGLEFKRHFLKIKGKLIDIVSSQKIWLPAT", "assay": "Inhibition of human CHEK1 assessed as percent of control at 2000 nM by KINOMEscan assay relative to control"}, "[5]": {"target": "Casein kinase I isoform alpha-like (Homo sapiens) (UniProt Q8N752)", "sequence (Q8N752 whole entry, canonical isoform)": "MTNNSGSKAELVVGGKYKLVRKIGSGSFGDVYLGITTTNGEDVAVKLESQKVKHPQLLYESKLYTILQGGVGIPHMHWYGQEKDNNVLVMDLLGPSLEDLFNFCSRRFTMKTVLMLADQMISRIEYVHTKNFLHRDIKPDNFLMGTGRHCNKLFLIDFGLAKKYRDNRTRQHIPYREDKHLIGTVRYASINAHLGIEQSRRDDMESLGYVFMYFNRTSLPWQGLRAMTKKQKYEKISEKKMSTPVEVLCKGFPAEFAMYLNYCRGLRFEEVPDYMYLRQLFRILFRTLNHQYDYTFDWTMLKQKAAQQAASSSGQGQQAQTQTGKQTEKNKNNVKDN", "assay": "Inhibition of human CSNK1A1L assessed as percent of control at 2000 nM by KINOMEscan assay relative to control"}, "[6]": {"target": "Casein kinase I isoform gamma-3 (Homo sapiens) (UniProt Q9Y6M4)", "sequence (Q9Y6M4 whole entry, looked up, canonical isoform)": "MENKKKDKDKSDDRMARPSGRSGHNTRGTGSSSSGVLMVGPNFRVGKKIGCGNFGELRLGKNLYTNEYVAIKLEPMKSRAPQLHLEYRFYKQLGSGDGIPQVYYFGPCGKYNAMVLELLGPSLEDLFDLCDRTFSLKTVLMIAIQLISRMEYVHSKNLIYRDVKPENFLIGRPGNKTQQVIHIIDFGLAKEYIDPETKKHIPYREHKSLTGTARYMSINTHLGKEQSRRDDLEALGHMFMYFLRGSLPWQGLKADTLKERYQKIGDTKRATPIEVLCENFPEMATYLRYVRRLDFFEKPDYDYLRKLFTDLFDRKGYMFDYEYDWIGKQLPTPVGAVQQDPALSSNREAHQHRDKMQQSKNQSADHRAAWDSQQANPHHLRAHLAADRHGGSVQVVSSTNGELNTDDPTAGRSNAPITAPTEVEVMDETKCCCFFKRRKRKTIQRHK", "assay": "Inhibition of human CSNK1G3 assessed as percent of control at 2000 nM by KINOMEscan assay relative to control"}, "[7]": {"target": "Megakaryocyte-associated tyrosine-protein kinase (Homo sapiens) (UniProt P42679)", "assay": "Inhibition of human CTK assessed as percent of control at 2000 nM by KINOMEscan assay relative to control"}, "[8]": {"target": "Serine/threonine-protein kinase 17A (Homo sapiens) (UniProt Q9UEE5)", "sequence (Q9UEE5 whole entry)": "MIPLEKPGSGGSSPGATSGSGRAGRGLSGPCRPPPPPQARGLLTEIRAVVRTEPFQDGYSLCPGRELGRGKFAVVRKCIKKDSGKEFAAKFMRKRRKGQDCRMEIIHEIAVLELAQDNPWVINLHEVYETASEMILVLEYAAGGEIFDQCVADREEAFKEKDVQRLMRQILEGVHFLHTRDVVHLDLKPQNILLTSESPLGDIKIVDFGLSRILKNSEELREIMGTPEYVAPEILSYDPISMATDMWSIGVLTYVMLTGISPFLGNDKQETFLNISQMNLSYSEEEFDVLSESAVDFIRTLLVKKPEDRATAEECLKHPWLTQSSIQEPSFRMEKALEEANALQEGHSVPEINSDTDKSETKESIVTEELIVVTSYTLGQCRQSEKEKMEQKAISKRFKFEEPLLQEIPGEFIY", "assay": "Inhibition of human DRAK1 assessed as percent of control at 2000 nM by KINOMEscan assay relative to control"}, "[9]": {"target": "Dual specificity tyrosine-phosphorylation-regulated kinase 2 (Homo sapiens) (UniProt Q92630)", "assay": "Inhibition of human DYRK2 assessed as percent of control at 2000 nM by KINOMEscan assay relative to control"}, "[10]": {"target": "Ephrin type-B receptor 3 (Homo sapiens) (UniProt P54753)", "assay": "Inhibition of human EPHB3 assessed as percent of control at 2000 nM by KINOMEscan assay relative to control"}, "[11]": {"target": "Ephrin type-B receptor 6 (Homo sapiens) (UniProt O15197)", "assay": "Inhibition of human EPHB6 assessed as percent of control at 2000 nM by KINOMEscan assay relative to control"}, "[12]": {"target": "Receptor tyrosine-protein kinase erbB-3 (Homo sapiens) (UniProt P21860)", "assay": "Inhibition of human ERBB3 assessed as percent of control at 2000 nM by KINOMEscan assay relative to control"}, "[13]": {"target": "Mitogen-activated protein kinase 6 (Homo sapiens) (UniProt Q16659)", "sequence (Q16659 whole entry)": "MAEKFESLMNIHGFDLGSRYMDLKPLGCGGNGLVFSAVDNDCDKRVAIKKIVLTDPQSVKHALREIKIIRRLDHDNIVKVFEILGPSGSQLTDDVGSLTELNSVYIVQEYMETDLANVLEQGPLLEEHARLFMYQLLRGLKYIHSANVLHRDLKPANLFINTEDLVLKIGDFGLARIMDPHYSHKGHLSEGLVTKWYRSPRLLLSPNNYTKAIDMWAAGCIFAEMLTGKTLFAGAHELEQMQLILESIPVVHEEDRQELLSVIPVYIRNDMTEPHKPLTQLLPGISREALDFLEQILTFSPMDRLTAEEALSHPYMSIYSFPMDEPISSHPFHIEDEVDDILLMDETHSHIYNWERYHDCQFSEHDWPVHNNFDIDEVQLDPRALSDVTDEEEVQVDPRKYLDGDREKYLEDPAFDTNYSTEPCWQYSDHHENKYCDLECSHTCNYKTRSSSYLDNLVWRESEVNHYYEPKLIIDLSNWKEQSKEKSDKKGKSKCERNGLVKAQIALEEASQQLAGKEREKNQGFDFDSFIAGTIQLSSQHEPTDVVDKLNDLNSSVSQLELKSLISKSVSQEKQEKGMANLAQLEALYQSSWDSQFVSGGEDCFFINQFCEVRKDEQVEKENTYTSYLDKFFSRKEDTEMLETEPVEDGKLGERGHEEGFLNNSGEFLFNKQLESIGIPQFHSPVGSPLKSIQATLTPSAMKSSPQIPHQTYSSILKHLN", "assay": "Inhibition of human ERK3 assessed as percent of control at 2000 nM by KINOMEscan assay relative to control"}, "[14]": {"target": "Mitogen-activated protein kinase 10 (Homo sapiens) (UniProt P53779)", "assay": "Inhibition of human JNK3 assessed as percent of control at 2000 nM by KINOMEscan assay relative to control"}, "[15]": {"target": "Serine/threonine-protein kinase LATS2 (Homo sapiens) (UniProt Q9NRM7)", "assay": "Inhibition of human LATS2 assessed as percent of control at 2000 nM by KINOMEscan assay relative to control"}, "[16]": {"target": "Mitogen-activated protein kinase kinase kinase 1 (Homo sapiens) (UniProt Q13233)", "assay": "Inhibition of human MAP3K1 assessed as percent of control at 2000 nM by KINOMEscan assay relative to control"}, "[17]": {"target": "Serine/threonine-protein kinase 4 (Homo sapiens) (UniProt Q13043)", "assay": "Inhibition of human MST1 assessed as percent of control at 2000 nM by KINOMEscan assay relative to control"}, "[18]": {"target": "Serine/threonine-protein kinase PAK 4 (Homo sapiens) (UniProt O96013)", "assay": "Inhibition of human PAK4 assessed as percent of control at 2000 nM by KINOMEscan assay relative to control"}, "[19]": {"target": "Phosphatidylinositol 4,5-bisphosphate 3-kinase catalytic subunit alpha isoform (Homo sapiens) (UniProt P42336)", "assay": "Inhibition of human PIK3CA assessed as percent of control at 2000 nM by KINOMEscan assay relative to control"}, "[20]": {"target": "Serine/threonine-protein kinase PknB (Mycobacterium tuberculosis) (UniProt P9WI81)", "assay": "Inhibition of Mycobacterium tuberculosis PKNB assessed as percent of control at 2000 nM by KINOMEscan assay relative to control"}, "[21]": {"target": "Ribosomal protein S6 kinase alpha-1 (Homo sapiens) (UniProt Q15418)", "assay": "Inhibition of human N-terminal RSK1 kinase domain 1 assessed as percent of control at 2000 nM by KINOMEscan assay relative to control"}, "[22]": {"target": "Ribosomal protein S6 kinase alpha-6 (Homo sapiens) (UniProt Q9UK32)", "assay": "Inhibition of human C-terminal RSK4 kinase domain 2 assessed as percent of control at 2000 nM by KINOMEscan assay relative to control"}, "[23]": {"target": "Ribosomal protein S6 kinase beta-1 (Homo sapiens) (UniProt P23443)", "assay": "Inhibition of human S6K1 assessed as percent of control at 2000 nM by KINOMEscan assay relative to control"}, "[24]": {"target": "Serine/threonine-protein kinase SBK1 (Homo sapiens) (UniProt Q52WX2)", "assay": "Inhibition of human SBK1 assessed as percent of control at 2000 nM by KINOMEscan assay relative to control"}, "[25]": {"target": "SNF-related serine/threonine-protein kinase (Homo sapiens) (UniProt Q9NRH2)", "sequence (Q9NRH2 whole entry)": "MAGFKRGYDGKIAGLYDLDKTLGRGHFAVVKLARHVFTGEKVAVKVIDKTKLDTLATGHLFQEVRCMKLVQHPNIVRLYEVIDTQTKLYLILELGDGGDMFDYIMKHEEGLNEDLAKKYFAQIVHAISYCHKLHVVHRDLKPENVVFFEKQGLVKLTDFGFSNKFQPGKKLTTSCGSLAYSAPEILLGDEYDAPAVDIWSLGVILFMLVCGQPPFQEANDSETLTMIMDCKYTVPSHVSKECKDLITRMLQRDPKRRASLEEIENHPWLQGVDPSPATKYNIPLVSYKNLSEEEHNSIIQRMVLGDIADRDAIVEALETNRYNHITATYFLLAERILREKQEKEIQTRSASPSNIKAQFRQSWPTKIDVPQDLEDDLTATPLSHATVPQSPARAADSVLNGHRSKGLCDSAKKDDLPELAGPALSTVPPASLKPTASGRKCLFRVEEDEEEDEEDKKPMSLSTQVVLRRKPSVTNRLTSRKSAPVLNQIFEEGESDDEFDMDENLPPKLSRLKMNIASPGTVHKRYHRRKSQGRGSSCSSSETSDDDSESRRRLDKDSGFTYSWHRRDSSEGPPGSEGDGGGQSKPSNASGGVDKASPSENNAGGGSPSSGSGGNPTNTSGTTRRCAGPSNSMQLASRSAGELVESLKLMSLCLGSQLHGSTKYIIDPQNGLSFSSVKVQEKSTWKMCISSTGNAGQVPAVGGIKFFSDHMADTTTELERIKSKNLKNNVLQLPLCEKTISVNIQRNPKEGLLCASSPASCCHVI", "assay": "Inhibition of human SNRK assessed as percent of control at 2000 nM by KINOMEscan assay relative to control"}, "[26]": {"target": "Tyrosine-protein kinase receptor Tie-1 (Homo sapiens) (UniProt P35590)", "assay": "Inhibition of human TIE1 assessed as percent of control at 2000 nM by KINOMEscan assay relative to control"}, "[27]": {"target": "Serine/threonine-protein kinase tousled-like 2 (Homo sapiens) (UniProt Q86UE8)", "assay": "Inhibition of human TLK2 assessed as percent of control at 2000 nM by KINOMEscan assay relative to control"}, "[28]": {"target": "Activated CDC42 kinase 1 (Homo sapiens) (UniProt Q07912)", "assay": "Inhibition of human TNK2 assessed as percent of control at 2000 nM by KINOMEscan assay relative to control"}, "[29]": {"target": "Tyrosine-protein kinase TXK (Homo sapiens) (UniProt P42681)", "assay": "Inhibition of human TXK assessed as percent of control at 2000 nM by KINOMEscan assay relative to control"}, "[30]": {"target": "Wee1-like protein kinase 2 (Homo sapiens) (UniProt P0C1S8)", "assay": "Inhibition of human WEE2 assessed as percent of control at 2000 nM by KINOMEscan assay relative to control"}}, "note": "“And” between values parts separate entries of the source, which are not always exact repeats. Equal values may be shown once.", "data": [{"smiles": "CN(C)C(=O)c1ccc(N2CCCN(c3ccnc4sc(C(N)=O)c(N)c34)CC2)cc1", "values": [{"measurement": "Activity", "setting": "[1]", "value": "88% and 84%"}, {"measurement": "Activity", "setting": "[2]", "value": "100% and 78%"}, {"measurement": "Activity", "setting": "[3]", "value": "96% and 92%"}, {"measurement": "Activity", "setting": "[4]", "value": "94% and 100%"}, {"measurement": "Activity", "setting": "[5]", "value": 67, "unit": "%"}, {"measurement": "Activity", "setting": "[5]; INHIBITOR", "value": 37, "unit": "%"}, {"measurement": "Activity", "setting": "[6]", "value": "95% and 80%"}, {"measurement": "Activity", "setting": "[7]", "value": "92% and 100%"}, {"measurement": "Activity", "setting": "[8]", "value": 100, "unit": "%"}, {"measurement": "Activity", "setting": "[9]", "value": "100% and 97%"}, {"measurement": "Activity", "setting": "[10]", "value": "96% and 94%"}, {"measurement": "Activity", "setting": "[11]", "value": "95% and 89%"}, {"measurement": "Activity", "setting": "[12]", "value": "100% and 88%"}, {"measurement": "Activity", "setting": "[13]", "value": "88% and 94%"}, {"measurement": "Activity", "setting": "[14]", "value": 91, "unit": "%"}, {"measurement": "Activity", "setting": "[14]; INHIBITOR", "value": 44, "unit": "%"}, {"measurement": "Activity", "setting": "[15]", "value": 94, "unit": "%"}, {"measurement": "Activity", "setting": "[15]; INHIBITOR", "value": 31, "unit": "%"}, {"measurement": "Activity", "setting": "[16]", "value": "84% and 90%"}, {"measurement": "Activity", "setting": "[17]", "value": "100% and 98%"}, {"measurement": "Activity", "setting": "[18]", "value": "87% and 100%"}, {"measurement": "Activity", "setting": "[19]", "value": "100% and 79%"}, {"measurement": "Activity", "setting": "[20]", "value": "100% and 90%"}, {"measurement": "Activity", "setting": "[21]", "value": "98% and 96%"}, {"measurement": "Activity", "setting": "[22]", "value": "94% and 79%"}, {"measurement": "Activity", "setting": "[23]", "value": "95% and 89%"}, {"measurement": "Activity", "setting": "[24]", "value": "100% and 83%"}, {"measurement": "Activity", "setting": "[25]", "value": "100% and 75%"}, {"measurement": "Activity", "setting": "[26]", "value": "90% and 96%"}, {"measurement": "Activity", "setting": "[27]", "value": "100% and 97%"}, {"measurement": "Activity", "setting": "[28]", "value": 100, "unit": "%"}, {"measurement": "Activity", "setting": "[29]", "value": "93% and 100%"}, {"measurement": "Activity", "setting": "[30]", "value": "97% and 88%"}]}]}
